Assay results taken from US20230139445A1, “BACTERIAL CELLS WITH IMPROVED TOLERANCE TO DIACIDS” (priority 2016, published 2023).

Columns and labels:
[1] = test system: Escherichia coli K-12 MG1655 evolved isolates and knockout mutants; test: Biolector growth screening of evolved isolates and reconstructed (knockout) mutants in glutaric or adipic acid; type: cell-based
Procedure: Biological triplicate cultures of each strain were grown to saturation overnight in 96 well deepwell plates containing 300 μL M9+1% glucose. The next day, cells were diluted 1:10 in deionized water in a clear 96 well plate and the OD600 was measured on a BioTek plate reader. 48 well FlowerPlates containing a final volume of 1.4 mL of M9+1/o glucose (plus relevant chemical) were inoculated to OD600 0.03 (with plate reader pathlength, 200 μL volume) with the overnight culture and sealed with Breathseal film. Light backscatter intensity was monitored in a Biolector microbioreactor system at 37° C. with 1000 rpm shaking.
Each re-sequenced isolate was characterized using the Biolector system for growth at the screening concentration of chemical (47.5 g/L glutaric acid or 50 g/L adipic acid) in biological triplicates.

[2] = test system: Escherichia coli K-12 MG1655 knockout mutants; test: Growth Profiler growth screening of K-12 MG1655 single, double and triple knockout mutants in glutaric or adipic acid; type: cell-based; settings: M9 + 47.5 g/L glutarate (neutralized)
Procedure: Five colonies from wild-type K-12 MG1655 and 10 individual colonies deriving from each population were inoculated into 300 μL M9+1% glucose in 96 well deepwell plates and incubated in a 300 rpm plate shaker at 37° C. The next day, cells were diluted 10× in M9+1% glucose and 30 μL was transferred into clear-bottomed 96 well half-deepwell plates (with rectangular wells) containing M9+1% glucose and M9+1% glucose+52.78 g/L glutaric acid or 55.56 g/L adipic acid, such that the final concentration of glutaric acid or adipic acid was 47.5 g/L or 50 g/L, respectively. In addition, cryogenic glycerol stocks of the overnight culture were saved in a 96 well plate format. Half deepwell plates were incubated at 37° C. with 225 rpm shaking in a Growth Profiler (Enzyscreen), with optical scans of the plates taken at 15 minute intervals. Green pixel values integrated over a 1 mm diameter circular area in each well were converted to OD600 values using a previously determined calibration between OD600 and green pixel values. […] In general, it was attempted to select three isolates per population for further analysis, and all populations were represented in the resequenced isolates.
Selected isolates from the primary screen were restruck onto LB agar from the cryogenic stock made from the overnight culture plate for the primary screen. Five K-12 MG1655 colonies and three individual colonies from each isolate were inoculated as biological replicates into a new 96 well deepwell plate containing 300 μL of M9+1% glucose, and grown overnight as for the primary screen. The next day, a cryogenic stock and half deepwell plates containing M9+1% glucose with or without glutaric acid or adipic acid were inoculated using the plate of overnight cultures, and growth was measured as described for the primary screen.
Probable important losses-of-function were determined by identifying genes across all isolates that harboured mutations, especially those occurring in multiple populations, and by the presence of at least one mutation that either generated a premature stop codon, a frameshift mutation, or the presence of an insertion element sequence within the gene. For those genes, the corresponding knockout strain from the Keio collection of single knockout mutants (where each gene is replaced with a cassette consisting of a kanamycin resistance gene flanked by FRT sites) was used as a donor strain for P1vir phage transduction. Briefly, the Keio strain was grown to early exponential phase in LB+5 mM CaCl2 and 80 μL of a P1vir stock raised on K-12 MG1655 was added. After significant lysis was observed after 1.5 to 2 hours, the lysate was filter-sterilized to remove cells and stored at 4° C. Strain K-12 MG1655 was grown overnight in LB+5 mM CaCl2) and 100 μL of the overnight culture was mixed with 100 μL of the P1vir lysate of the Keio collection mutant, and the mixture was incubated at 37° C. without shaking for 20 minutes. The entire mixture was then plated on LB agar containing 1.25 mM sodium pyrophosphate as a chelating agent and 25 μg/mL kanamycin. One colony was then restruck on LB+1.25 mM […]+25 μg/mL kanamycin plate and analyzed for presence of the Keio cassette in place of the wild-type gene by colony PCR. When further knockouts were constructed in the same strain, the Keio cassette was flipped out to generate a scar sequence such that Kan^R marker could be recycled. […]

[3] = strain GLUT1-3, M9 + 47.5 g/L glutaric acid (neutralized with sodium hydroxide)
[4] = strain GLUT1-3, M9 + 47.5 g/L glutaric acid (neutralized), knockout experiment (Table 14)
[5] = strain GLUT1-9, M9 + 47.5 g/L glutaric acid (neutralized with sodium hydroxide)
[6] = strain GLUT1-10, M9 + 47.5 g/L glutaric acid (neutralized with sodium hydroxide)
[7] = strain GLUT1-10, M9 + 47.5 g/L glutaric acid (neutralized), knockout experiment (Table 14)
[8] = strain GLUT2-1, M9 + 47.5 g/L glutaric acid (neutralized with sodium hydroxide)
[9] = strain GLUT2-9, M9 + 47.5 g/L glutaric acid (neutralized with sodium hydroxide)
[10] = strain GLUT2-10, M9 + 47.5 g/L glutaric acid (neutralized with sodium hydroxide)
[11] = strain GLUT3-5, M9 + 47.5 g/L glutaric acid (neutralized with sodium hydroxide)
[12] = strain GLUT3-7, M9 + 47.5 g/L glutaric acid (neutralized with sodium hydroxide)
[13] = strain GLUT3-9, M9 + 47.5 g/L glutaric acid (neutralized with sodium hydroxide)
[14] = strain GLUT4-1, M9 + 47.5 g/L glutaric acid (neutralized with sodium hydroxide)
[15] = strain GLUT4-1, M9 + 47.5 g/L glutaric acid (neutralized), knockout experiment (Table 14)
[16] = strain GLUT4-4, M9 + 47.5 g/L glutaric acid (neutralized with sodium hydroxide)
[17] = strain GLUT4-10, M9 + 47.5 g/L glutaric acid (neutralized with sodium hydroxide)
[18] = strain GLUT5-4, M9 + 47.5 g/L glutaric acid (neutralized with sodium hydroxide)
[19] = strain GLUT5-5, M9 + 47.5 g/L glutaric acid (neutralized with sodium hydroxide)
[20] = strain GLUT6-4, M9 + 47.5 g/L glutaric acid (neutralized with sodium hydroxide)
[21] = strain GLUT6-5, M9 + 47.5 g/L glutaric acid (neutralized with sodium hydroxide)
[22] = strain GLUT6-10, M9 + 47.5 g/L glutaric acid (neutralized with sodium hydroxide)
[23] = strain GLUT7-2, M9 + 47.5 g/L glutaric acid (neutralized with sodium hydroxide)
[24] = strain GLUT7-6, M9 + 47.5 g/L glutaric acid (neutralized with sodium hydroxide)
[25] = strain GLUT7-7, M9 + 47.5 g/L glutaric acid (neutralized with sodium hydroxide)
[26] = strain GLUT8-5, M9 + 47.5 g/L glutaric acid (neutralized with sodium hydroxide)
[27] = strain GLUT8-6, M9 + 47.5 g/L glutaric acid (neutralized with sodium hydroxide)
[28] = strain GLUT8-6, M9 + 47.5 g/L glutaric acid (neutralized), knockout experiment (Table 14)
[29] = strain GLUT8-9, M9 + 47.5 g/L glutaric acid (neutralized with sodium hydroxide)
[30] = strain MG1655, M9 + 47.5 g/L glutaric acid (neutralized with sodium hydroxide)
[31] = strain MG1655, M9 + 47.5 g/L glutaric acid (neutralized), knockout experiment (Table 14)
[32] = strain MG1655 kgtP::kan, M9 + 47.5 g/L glutaric acid (neutralized)
[33] = strain MG1655 proV::kan, M9 + 47.5 g/L glutaric acid (neutralized)
[34] = strain MG1655 ybjL::kan, M9 + 47.5 g/L glutaric acid (neutralized)
[35] = strain MG1655 ΔkgtP proV::kan, M9 + 47.5 g/L glutaric acid (neutralized)
[36] = strain MG1655 ΔkgtP sspA::kan, M9 + 47.5 g/L glutaric acid (neutralized)
[37] = strain MG1655 ΔkgtP ybjL::kan, M9 + 47.5 g/L glutaric acid (neutralized)
[38] = strain MG1655 ΔkgtP ΔproV ybjL::kan, M9 + 47.5 g/L glutaric acid (neutralized)

Structure (SMILES): O=C(O)CCCC(=O)O [glutaric acid]
- mean growth rate μ [1, 3]: 0.304 h⁻¹
- mean lag time tlag [1, 3]: 5.1 h
- mean growth rate μ [1, 4]: 0.278 h⁻¹
- mean lag time tlag [1, 4]: 4.6 h
- mean growth rate μ [1, 5]: 0.319 h⁻¹
- mean lag time tlag [1, 5]: 6.4 h
- mean growth rate μ [1, 6]: 0.458 h⁻¹
- mean lag time tlag [1, 6]: 11.3 h
- mean growth rate μ [1, 7]: 0.442 h⁻¹
- mean lag time tlag [1, 7]: 10.8 h
- mean growth rate μ [1, 8]: 0.276 h⁻¹
- mean lag time tlag [1, 8]: 6.8 h
- mean growth rate μ [1, 9]: 0.298 h⁻¹
- mean lag time tlag [1, 9]: 6.5 h
- mean growth rate μ [1, 10]: 0.378 h⁻¹
- mean lag time tlag [1, 10]: 6.5 h
- mean growth rate μ [1, 11]: 0.284 h⁻¹
- mean lag time tlag [1, 11]: 5.6 h
- mean growth rate μ [1, 12]: 0.277 h⁻¹
- mean lag time tlag [1, 12]: 5.6 h
- mean growth rate μ [1, 13]: 0.324 h⁻¹
- mean lag time tlag [1, 13]: 8.3 h
- mean growth rate μ [1, 14]: 0.279 h⁻¹
- mean lag time tlag [1, 14]: 6.2 h
- mean growth rate μ [1, 15]: 0.312 h⁻¹
- mean lag time tlag [1, 15]: 7.1 h
- mean growth rate μ [1, 16]: 0.287 h⁻¹
- mean lag time tlag [1, 16]: 6.6 h
- mean growth rate μ [1, 17]: 0.297 h⁻¹
- mean lag time tlag [1, 17]: 6.9 h
- mean growth rate μ [1, 18]: 0.438 h⁻¹
- mean lag time tlag [1, 18]: 17.0 h
- mean growth rate μ [1, 19]: 0.349 h⁻¹
- mean lag time tlag [1, 19]: 14.5 h
- mean growth rate μ [1, 20]: 0.277 h⁻¹
- mean lag time tlag [1, 20]: 5.9 h
- mean growth rate μ [1, 21]: 0.300 h⁻¹
- mean lag time tlag [1, 21]: 6.5 h
- mean growth rate μ [1, 22]: 0.341 h⁻¹
- mean lag time tlag [1, 22]: 6.7 h
- mean growth rate μ [1, 23]: 0.318 h⁻¹
- mean lag time tlag [1, 23]: 6.6 h
- mean growth rate μ [1, 24]: 0.318 h⁻¹
- mean lag time tlag [1, 24]: 7.1 h
- mean growth rate μ [1, 25]: 0.283 h⁻¹
- mean lag time tlag [1, 25]: 7.8 h
- mean growth rate μ [1, 26]: 0.322 h⁻¹
- mean lag time tlag [1, 26]: 6.2 h
- mean growth rate μ [1, 27]: 0.347 h⁻¹
- mean lag time tlag [1, 27]: 7.1 h
- mean growth rate μ [1, 28]: 0.402 h⁻¹
- mean lag time tlag [1, 28]: 7.8 h
- mean growth rate μ [1, 29]: 0.345 h⁻¹
- mean lag time tlag [1, 29]: 7.4 h
- mean growth rate μ [1, 30]: 0.103 h⁻¹
- mean lag time tlag [1, 30]: 10.7 h
- mean growth rate μ [1, 31]: 0.100 h⁻¹
- mean lag time tlag [1, 31]: 10.4 h
- mean growth rate μ [1, 32]: 0.181 h⁻¹
- mean lag time tlag [1, 32]: 5.8 h
- mean growth rate μ [1, 33]: 0.085 h⁻¹
- mean lag time tlag [1, 33]: 0.6 h
- mean growth rate μ [1, 34]: 0.126 h⁻¹
- mean lag time tlag [1, 34]: 12.8 h
- mean growth rate μ [1, 35]: 0.244 h⁻¹
- mean lag time tlag [1, 35]: 6.5 h
- mean growth rate μ [1, 36]: 0.256 h⁻¹
- mean lag time tlag [1, 36]: 5.7 h
- mean growth rate μ [1, 37]: 0.213 h⁻¹
- mean lag time tlag [1, 37]: 6.0 h
- mean growth rate μ [1, 38]: 0.300 h⁻¹
- mean lag time tlag [1, 38]: 7.0 h
- mean lag time tlag ([2]; strain MG1655 ΔkgtP proV::kan): 13.0 h
- mean growth rate μ ([2]; strain MG1655 ΔkgtP sspA::kan): 0.225 h⁻¹
